The source of these data is publication PMC11793105, “A kalihinol analog disrupts apicoplast function and vesicular trafficking in P. falciparum malaria” (Science (New York, N.Y.), 2024).

What all share (type): cell-based
The test system of assay [1] is P. falciparum Dd2 (MRA-156). As to the kind of experiment: SYBR Green I growth inhibition assay, Dd2. The following applies: Plasmodium falciparum. As to the method: Fig. 1. […] (B) SYBR Green–based dose response assays were conducted on early-ring stage parasites (6 hours after invasion). […] 3D7 WT (blue), NF54 (green), drug-resistant strains Dd2 (red), HB3 (black), W2 (gray), and D10-ACP-GFP (purple) lines (Sigmoidal, 4PL, X is concentration, n ≥ 3, nonlinear regression, CI: 95%). (C) Schematic diagram of the development of P. falciparum after two consecutive erythrocytic cycles. The time points at which MED6-189 was introduced are depicted in green. HPS, hours post synchronization. […] The images depict various developmental stages of the parasite’s intraerythrocytic life cycle. Bordered images represent time points when drug was first introduced (n = 3 biological replicates, P < 0.05).
(§1) Detailed information on materials and methods is available in the supplementary materials. […] P. knowlesi assays were quantitatively measured by flow cytometry using SYBR Green I and Mitrotracker Deep Red, as previously described ([84], [85]), on a Beckman Coulter CytoFLEX. […]
(§2) P. falciparum in vitro SYBR green fluorescence-based assays The anti-malarial activity of individual analogues were evaluated in-vitro against P. falciparum 3D7 (MRA-102, drug […]
(§3) green-I based fluorescence assay. Parasite growth rate and stages of development were determined via microscopy through Giemsa-stained smears of the cultures. […]

The subject of the next assay is HeLa. As to the kind of experiment: Human cell line activity, HeLa. The following applies: read-out: IC50 (µM) HeLa.
The test system of assay [2] is P. knowlesi YH1 human erythrocyte infecting parasites. Briefly: P. knowlesi in vitro IC50 assay (flow cytometry), human erythrocytes. The note with it: Plasmodium knowlesi. How it is done:
Fig. 5. In vivo and broad-spectrum antimalarial efficacy of MED6-189. (A) The in vivo efficacy of MED6-189 was evaluated in a humanized mouse model infected with P. falciparum (blue) compared with untreated controls (black). […] The graphs illustrate the logarithmic growth of parasites (y axis) in response to varying drug concentrations (x axis). Error bars represent standard deviations from two independent experiments conducted in triplicate. The regression line is derived from a nonlinear regression analysis (variable slope with four parameters, least squares fit). (C) Proposed mode of action of MED6-189 in P. falciparum–infected erythrocytes. […]
as §1, §2, §3
On the technique in general: In flow cytometry, cells or beads pass a laser one at a time.

SMILES strings stand for the structures. Like-named read-outs stand apart in the source and are kept apart here.

Take `[C-]#[N+][C@]1(C)CC[C@H]2[C@@H]([C@@H](C(C)C)CC[C@]2(C)[N+]#[C-])[C@H]1O` [MED6-189]: the IC50 was found to be 0.047 ± 0.007 µM in assay [1] (DD2, 72 h); 0.017 µM in assay [1] (DD2, read-out: IC50 (µM) P. falciparum (Dd2)); 9.6 µM in the assay with HeLa; 309 ± 42 nM in assay [2].

By IC50 is commonly meant the concentration needed to halve the response being measured.
